Experiments:
[1] = tested on: hepatocytes cultured from rats
Excerpt: An experiment using hepatocytes cultured from rats has been initiated to determine the metabolic interactions of piperonyl butoxide and fenbendazole (50 micromoles).

in vivo = conditions: for AUC: goat, po, 7.5 mg/kg
Procedure: In order to minimise interindividual variations our experimental protocol was designed as a crossover (each animal was used as its own control). A five week wash-out period was allowed between crossovers. Six goats were used in this experiment.
First period: Fenbendazole (Panacur 2.5%) was administered orally at a dose rate of 7.5 mg/kg. Blood samples were taken prior to drug administration and 0.25, 0.5, 1, 2, 4, 8, 12, 24, 32, 48, 72 and 96 hours thereafter.
Second period: One hour before administration of fenbendazole (7.5 mg/kg) the animals received a dose of piperonyl butoxide (0.5 g/kg) given intramuscularly. Blood samples were taken as in the first period.
Plasma samples were analysed for fenbendazole by High Performance Liquid Chromatography.

[2] = tested on: benzimidazole resistant Ostertagia circumcincta and Haemonchus contortus; experiment: Faecal egg counts in infected lambs (McMaster egg counting technique); format: in vivo
Procedure: (§1) A study was carried out to determine the efficacy of the piperonyl butoxide: fenbendazole combination and to compare it with piperonyl-butoxide and fenbendazole alone against benzimidazole resistant abomasal parasites.
(§2) Twenty-four parasite naive Suffolk cross lambs were allocated into four groups of six. Each lamb received an oral dose of 6,000 benzimidazole resistant Ostertagia circumcincta and 2,400 benzimidazole resistant Haemonchus contortus.
(§3) Twenty-eight days after infection animals were treated as follows:
(§4) Group 2 Piperonyl butoxide (63 mg/kg) by stomach tube.
(§5) Group 3 Fenbendazole (5 mg/kg) by stomach tube.
(§6) Group 4 Piperonyl butoxide (63 mg/kg) and fenbendazole
(§7) (5 mg/kg) by stomach tube.
(§8) All lambs were faecal sampled and killed seven days after treatment (day 35). Nematode egg numbers were determined in faeces by the McMaster egg counting technique (Gordon and Whitlock (1939) J. Council for Scientific and Industrial Res., 12,50) and numbers of O. circumcincta were determined by the dilution method of Ritchie et al. (1966), Amer J. Vet. Res., 27, 659-667. Total abomasal counts of H. contortus were determined.

[3] = tested on: benzimidazole resistant Haemonchus contortus; experiment: Total abomasal counts of H. contortus in sheep at necropsy; format: in vivo; conditions: for numbers of H.contortus at necropsy, effect in words: 7 days after treatment; for Mean ±SD numbers of H. contortus in sheep killed 7 days after treatment: piperonyl butoxide 63 mg/kg and/or fenbendazole 5 mg/kg by stomach tube, no treatment 345 ± 69
Procedure: as §1, §2, §3, §4, §5, §6, §7, §8

[4] = tested on: benzimidazole resistant Ostertagia circumcincta; experiment: Numbers of O. circumcincta in sheep at necropsy (dilution method); format: in vivo
Procedure: as §1, §2, §3, §4, §5, §6, §7, §8

[5] = pretreatment with 2-diethylaminoethyl-2,2-diphenylvalerate hydrochloride and piperonyl butoxide; Food Chem. Toxicol. 1992, 30(12), 1021-30; cited from earlier work

## COC(=O)Nc1nc2ccc([S+]([O-])c3ccccc3)cc2[nH]1 (stereo not shown) [Fenbendazole sulfoxide, fenbendazole sulfoxide]
[1]
  concentrations of the sulfoxide and sulfone metabolites: much reduced
In vivo; Area under plasma-concentration-time curve (Active alone), active alone, goats, fenbendazole 7.5 mg/kg oral
  AUC: 7720 ng·h/mL

## COC(=O)Nc1nc2ccc(Sc3ccccc3)cc2[nH]1 [Fenbendazole, fenbendazole]
[2]; piperonyl butoxide 63 mg/kg and/or fenbendazole 5 mg/kg by stomach tube, no treatment 491 ± 267
  Mean ±SD faecal egg counts in sheep seven days after treatment: 100 ± 84 Eggs per gram of faeces
[2]; seven days after treatment
  reduction in faecal egg counts: 79.7%
[3]
  numbers of H.contortus at necropsy, effect in words: significantly reduced
  Mean ±SD numbers of H. contortus in sheep killed 7 days after treatment: 58 ± 29
[4]; at necropsy, alone
  reduction of number of O.circumcincta in the abomasa, in words: Neither piperonyl butoxide nor fenbendazole alone significantly reduced
[4]; piperonyl butoxide 63 mg/kg and/or fenbendazole 5 mg/kg by stomach tube, no treatment 2985 ± 654
  Mean ±SD numbers of O. circumcincta in sheep killed 7 days after treatment: 2875 ± 1308
In vivo
  area under the plasma concentration-time curve (AUC), change in words: significant increase
  residence time, change in words: significantly prolonged
In vivo; Area under plasma-concentration-time curve (Active alone)
  AUC: 4170 ng·h/mL
In vivo; Area under plasma-concentration-time curve (Active plus piperonyl butoxide)
  AUC: 16600 ng·h/mL

## CCCCOCCOCCOCc1cc2c(cc1CCC)OCO2 [Piperonyl butoxide, piperonyl butoxide]
[1]
  effect on oxidative metabolism of fenbendazole by rat liver cells: inhibiting the oxidative metabolism of fenbendazole
[3]
  numbers of H.contortus at necropsy, effect in words: no effect
  Mean ±SD numbers of H. contortus in sheep killed 7 days after treatment: 320 ± 133

## c1ccc2[nH]c(-c3cscn3)nc2c1 [thiabendazole]
[5]
  acute toxic effects on the kidneys of mice: enhanced
